Columns and labels:
[1] = system: tumor cells; assay: Cellular uptake of ^99mTc-EC-G in tumor cells; assay type: cell-based
Method: (§1) To further validate EC-G biological activity, in vitro cell culture assays were performed. Briefly, the cellular uptake was determined in tumor cells (50,000 cells/well) incubated with ^99mTc-EC-G (2 μCi/well) at various time intervals. […] There was a 10-15% decrease in cellular uptake using ^99mTc-EC-G after 2-4 weeks. The useful life of EC-G in water appears to be 17.26 days.

[2] = In vitro stability of EC-G dissolved in water; assay type: physicochemical
Method: as §1

[3] = In vivo imaging studies of EC-G; settings: comparison of aqueous and organic synthesized EC-G
[4] = system: New Zealand white rabbit; assay: PET imaging in a New Zealand white rabbit; assay type: in vivo; settings: PET coronal images 45 minutes after injection of 0.66 mCi
Method: The numbers are heart/upper mediastinum (H/UM) count density (count/pixel) ratios at 15-45 minutes. […] A rabbit was administered ^68Ga-EC-trimethyl lysine (EC-TML). PET coronal images were acquired at 45 minutes after injection of 0.66 mCi of ^68Ga-EC-TML (dorsal to ventral order).

[5] = system: human lymphoma cells; assay: [^3H]Thymidine incorporation assay using Re-EC-G and a lymphoma cell line; assay type: cell-based; settings: in vitro cell culture, dose response curve (FIG. 3)

Substance: N,N′-ethylenedicysteine-glucosamine [EC-G]
- in vitro uptake, aqueous versus organic synthesized EC-G ([1]; comparison of aqueous and organic synthesized EC-G): no marked difference
- cellular uptake, raw (unpurified) EC-G versus prep-HPLC purified EC-G ([1]; tumor cells 50,000 cells/well, ^99mTc-EC-G 2 μCi/well, various time intervals (FIG. 4)): no marked difference
- useful life of EC-G in water [2]: 17.26 days
- in vivo imaging, EC-G from aqueous versus organic synthesis [3]: no marked difference

Substance: ^68Ga-EC-trimethyl lysine [^68Ga-EC-TML]
- uptake in the heart [4]: High uptake

Substance: rhenium-ethylenedicysteine-glucosamine [Re-EC-G]
- activity against human lymphoma cells [5]: effective
